# From patent publication US9211264B2, “Coated drug spheroids and uses thereof for eliminating or reducing conditions such as emesis and diarrhea” (Wyeth LLC, priority 2009, dated 2015)
# Where a name gives a salt, the structure may show the parent alone. Read-outs that look alike come from different tables or passages of the source.
# What was measured:
# [1] = Exposure study: neratinib pharmacokinetics with and without concurrent ketoconazole; conditions: human, in vivo, 240 mg, 240 mg neratinib
# Procedure: (§1) Exposure studies were performed to determine if gastrointestinal tolerability is related to systemic exposure of neratinib maleate.
# [2] = GI tolerability with and without concurrent ketoconazole (subjects reporting GI AEs); assay type: in vivo
# Procedure: as §1
# Subjects Reporting GI AEs
# [3] = Gastrointestinal adverse events in single dose clinical studies of healthy subjects; assay type: in vivo, human; conditions: 192 healthy subjects, five single doses
# From the text: In a clinical study, 192 healthy subjects were given five single doses of neratinib maleate. Adverse events were observed and classified as follows: • Grade 1 gastrointestinal adverse events (GI AEs) ˜25%40% • Grade 2 gastrointestinal adverse events (GI AEs) ˜15%
# Grade 1 and 2 gastrointestinal adverse events predominated as the adverse events observed in clinical studies of healthy subjects.
# [4] = Adverse events in multiple dose clinical studies of cancer patients; assay type: in vivo, human; conditions: cancer patients (>400), single agent and combination
# From the text: Adverse events in clinical studies of cancer patients were observed and classified as follows: • Nausea, Vomiting, Diarrhea, Dehydration, Anorexia (˜95%) • Asthenia, Fatigue (˜30-60%) • Rash (˜20-25%) • Elevated ALT, AST (<10%)
Compound,"AUC(0-t) ([1]; geometric mean in brackets, read-out: AUC t [Geo mean])","AUC(0-inf) ([1]; geometric mean in brackets, read-out: AUC∞ [Geo mean])","Cmax ([1]; geometric mean in brackets, read-out: Cmax [Geo mean])","AUC(0-t) ([1]; value outside brackets, read-out: AUC t)","AUC(0-inf) ([1]; value outside brackets, read-out: AUC∞)","Cmax ([1]; value outside brackets, read-out: Cmax)",Subjects Reporting GI AEs: GI Disorders ([2]; 240 mg neratinib),Grade 2 gastrointestinal adverse events (GI AEs) [3],"Asthenia, Fatigue [4]","Elevated ALT, AST [4]","Nausea, Vomiting, Diarrhea, Dehydration, Anorexia [4]",Rash [4],GI tolerability (diarrhea) relation to systemic exposure ([2]; exposure studies with concurrent ketoconazole)
"CCOc1cc2ncc(C#N)c(Nc3ccc(OCc4ccccn4)c(Cl)c3)c2cc1NC(=O)/C=C/CN(C)C [Neratinib, (E)-N-(4-(3-chloro-4-(pyridin-2-ylmethoxy)phenylamino)-3-cyano-7-ethoxyquinolin-6-yl)-4-(dimethylamino) but-2-enamide]",727 ng·h/mL,802 ng·h/mL,51.5 ng/mL,835 ng·h/mL,903 ng·h/mL,55.3 ng/mL,31.8%,–,–,–,–,–,–
"CCOc1cc2ncc(C#N)c(Nc3ccc(OCc4ccccn4)c(Cl)c3)c2cc1NC(=O)/C=C/CN(C)C [neratinib maleate, (E)-N-(4-(3-chloro-4-(pyridin-2-ylmethoxy)phenylamino)-3-cyano-7-ethoxyquinolin-6-yl)-4-(dimethylamino) but-2-enamide]",–,–,–,–,–,–,–,~15%,30-60%,< 10%,~95%,20-25%,not related to systemic exposure
